Patent publication US11738008B2, “N-methyl-D-aspartic acid receptor modulators” (Emory University, priority 2018, dated 2023)

Experiments:
GluA2 = molecular target: T1, GluA2 (Homo sapiens, UniProt P42262); assay: Off-target two-electrode voltage clamp assay, GluA2; format: cell-based; details: 10 μM, mean ± SEM
T1 construct: expressed in transfected cells
Description: (§1) The NIMH PDSP is Directed by Bryan L. Roth at the University of North Carolina at Chapel Hill and Project Officer Jamie Driscoll at NIMH, Bethesda Md., USA. Radioligand binding was measured in the presence of 10 μM 1180-420 and 1180-447. […] For experimental details please refer to the PDSP web site https://pdsp.unc.edu/ims/investigator/web/. Both 1180-420 and 1180-447 were also tested at AMPA, nicotinic acetylcholine, serotonin, GABA, and glycine ion channels using a two-electrode voltage clamp assay.

α1β2γδ-nACh = assay: Off-target two-electrode voltage clamp assay, α1β2γδ-nACh; format: cell-based; details: 10 μM, mean ± SEM
Description: as §1

α1β2γ2-GABAA = molecular target: T2, α1β2γ2-GABAA (Homo sapiens, UniProt P14867+P18507+P47870); assay: Off-target two-electrode voltage clamp assay, α1β2γ2-GABAA; format: cell-based; details: 10 μM, mean ± SEM
T2 construct: expressed in transfected cells
Description: as §1

5-HT1A = molecular target: T3, 5-HT1A (Homo sapiens, UniProt P08908); assay: NIMH PDSP radioligand binding, 5-HT1A; details: read-out: Radioligand binding in 10 μM compound (% control)
T3 construct: NIMH PDSP (assay provider)
Description: as §1
(§2) Receptor binding profiles of compound 1180-447 were generously provided by the National Institute of Mental Health's Psychoactive Drug Screening Program, Contract # HHSN-271-2013-00017-C(NIMH PDSP). The NIMH PDSP is directed by Bryan L. Roth at the University of North Carolina at Chapel Hill and Project Officer Jamie Driscoll at NIMH, Bethesda Md., USA. Radioligand binding was measured in the presence of 10 μM 1180-447. […] For experimental details please refer to the PDSP web site https://pdsp.unc.edu/ims/investigator/web/.
(§3) The NIMH PDSP is Directed by Bryan L. Roth at the University of North Carolina at Chapel Hill and Project Officer Jamie Driscoll at NIMH, Bethesda Md., USA. Radioligand binding was measured in the presence of 10 μM 1180-420. […] For experimental details please refer to the PDSP web site https://pdsp.unc.edu/ims/investigator/web/.

5-HT1B = molecular target: T4, 5-HT1B (Homo sapiens, UniProt P28222); assay: NIMH PDSP radioligand binding, 5-HT1B; details: read-out: Radioligand binding in 10 μM compound (% control)
T4 construct: NIMH PDSP (assay provider)
Description: as §1, §2, §3

5-HT1D = molecular target: T5, 5-HT1D (Homo sapiens, UniProt P28221); assay: NIMH PDSP radioligand binding, 5-HT1D; details: read-out: Radioligand binding in 10 μM compound (% control)
T5 construct: NIMH PDSP (assay provider)
Description: as §1, §2, §3

5-HT1E = molecular target: T6, 5-HT1E (Homo sapiens, UniProt P28566); assay: NIMH PDSP radioligand binding, 5-HT1E; details: read-out: Radioligand binding in 10 μM compound (% control)
T6 construct: NIMH PDSP (assay provider)
Description: as §1, §2, §3

5-HT2A = molecular target: T7, 5-HT2A (Homo sapiens, UniProt P28223); assay: NIMH PDSP radioligand binding, 5-HT2A
T7 construct: NIMH PDSP (assay provider)
Description: as §1, §2, §3

5-HT5A = molecular target: T8, 5-HT5A (Homo sapiens, UniProt P47898); assay: NIMH PDSP radioligand binding, 5-HT5A; details: read-out: Radioligand binding in 10 μM compound (% control)
T8 construct: NIMH PDSP (assay provider)
Description: as §1, §2, §3

5-HT6 = molecular target: T9, 5-HT6 (Homo sapiens, UniProt P50406); assay: NIMH PDSP radioligand binding, 5-HT6; details: read-out: Radioligand binding in 10 μM compound (% control)
T9 construct: NIMH PDSP (assay provider)
Description: as §1, §2, §3

D1 = molecular target: T10, D1 (Homo sapiens, UniProt P21728); assay: NIMH PDSP radioligand binding, D1; details: read-out: Radioligand binding in 10 μM compound (% control)
T10 construct: NIMH PDSP (assay provider)
Description: as §1, §2, §3

D2 = molecular target: T11, D2 (Homo sapiens, UniProt P14416); assay: NIMH PDSP radioligand binding, D2; details: read-out: Radioligand binding in 10 μM compound (% control)
T11 construct: NIMH PDSP (assay provider)
Description: as §1, §2, §3

D4 = molecular target: T12, D4 (Homo sapiens, UniProt P21917); assay: NIMH PDSP radioligand binding, D4; details: read-out: Radioligand binding in 10 μM compound (% control)
T12 construct: NIMH PDSP (assay provider)
Description: as §1, §2, §3

serotonin transporter = serotonin transporter (Homo sapiens, UniProt P31645); assay: NIMH PDSP radioligand binding, serotonin transporter; details: read-out: Radioligand binding in 10 μM compound (% control)
Description: as §1, §2, §3

[1] = molecular target: norepinephrine transporter (Homo sapiens, UniProt P23975); assay: NIMH PDSP radioligand binding, norepinephrine transporter; details: read-out: Radioligand binding in 10 μM compound (% control)
Description: as §1, §2, §3

μ-opioid receptor = μ-opioid receptor (Homo sapiens, UniProt P35372); assay: NIMH PDSP radioligand binding, μ-opioid receptor; details: read-out: Radioligand binding in 10 μM compound (% control)
Description: as §1, §2, §3

δ-opioid receptor = δ-opioid receptor (Homo sapiens, UniProt P41143); assay: NIMH PDSP radioligand binding, δ-opioid receptor; details: read-out: Radioligand binding in 10 μM compound (% control)
Description: as §1, §2, §3

κ-opioid receptor = κ-opioid receptor (Homo sapiens, UniProt P41145); assay: NIMH PDSP radioligand binding, κ-opioid receptor
Description: as §1, §2, §3

GABAA = assay: NIMH PDSP radioligand binding, GABAA
Description: as §1, §2, §3

H1 = H1 (Homo sapiens, UniProt P35367); assay: NIMH PDSP radioligand binding, H1; details: read-out: Radioligand binding in 10 μM compound (% control)
Description: as §1, §2, §3

H3 = H3 (Homo sapiens, UniProt Q9Y5N1); assay: NIMH PDSP radioligand binding, H3; details: read-out: Radioligand binding in 10 μM compound (% control)
Description: as §1, §2, §3

H4 = H4 (Homo sapiens, UniProt Q9H3N8); assay: NIMH PDSP radioligand binding, H4; details: read-out: Radioligand binding in 10 μM compound (% control)
Description: as §1, §2, §3

α2A = α2A (Homo sapiens, UniProt P08913); assay: NIMH PDSP radioligand binding, α2A; details: read-out: Radioligand binding in 10 μM compound (% control)
Description: as §1, §2, §3

α2B = α2B (Homo sapiens, UniProt P18089); assay: NIMH PDSP radioligand binding, α2B; details: read-out: Radioligand binding in 10 μM compound (% control)
Description: as §1, §2, §3

α2C = α2C (Homo sapiens, UniProt P18825); assay: NIMH PDSP radioligand binding, α2C; details: read-out: Radioligand binding in 10 μM compound (% control)
Description: as §1, §2, §3

β3 = β3 (Homo sapiens, UniProt P13945); assay: NIMH PDSP radioligand binding, β3; details: read-out: Radioligand binding in 10 μM compound (% control)
Description: as §1, §2, §3

M1 = M1 (Homo sapiens, UniProt P11229); assay: NIMH PDSP radioligand binding, M1; details: read-out: Radioligand binding in 10 μM compound (% control)
Description: as §1, §2, §3

M3 = M3 (Homo sapiens, UniProt P20309); assay: NIMH PDSP radioligand binding, M3; details: read-out: Radioligand binding in 10 μM compound (% control)
Description: as §1, §2, §3

M4 = M4 (Homo sapiens, UniProt P08173); assay: NIMH PDSP radioligand binding, M4; details: read-out: Radioligand binding in 10 μM compound (% control)
Description: as §1, §2, §3

[2] = tested on: benzodiazapine rat brain site; assay: NIMH PDSP radioligand binding, benzodiazapine rat brain site
Description: as §1, §2, §3

[3] = molecular target: translocator protein (peripheral benzodiazepine site) (Homo sapiens, UniProt P30536); assay: NIMH PDSP radioligand binding, translocator protein; details: read-out: Radioligand binding in 10 μM compound (% control)
Description: as §1, §2, §3

hERG = hERG (Homo sapiens, UniProt Q12809); assay: NIMH PDSP hERG binding
Description: as §1, §2, §3

σ1 = σ1 (Homo sapiens, UniProt Q99720); assay: NIMH PDSP radioligand binding, σ1; details: read-out: Radioligand binding in 10 μM compound (% control)
Description: as §1, §2, §3

σ2 = σ2 (Homo sapiens, UniProt Q5BJF2); assay: NIMH PDSP radioligand binding, σ2
Description: as §1, §2, §3

CNS receptors = assay: Off-target profile, NIMH PDSP CNS receptors (panel summary); format: binding; details: 10 μM
Description: as §1, §2, §3

[4] = 10 μM, read-out: Radioligand binding in 10 μM compound (% control)
[5] = read-out: pKi values from non-linear regression of radioligand competition binding isotherms (converted)

T7 sequence (P28223 whole entry, species assumed): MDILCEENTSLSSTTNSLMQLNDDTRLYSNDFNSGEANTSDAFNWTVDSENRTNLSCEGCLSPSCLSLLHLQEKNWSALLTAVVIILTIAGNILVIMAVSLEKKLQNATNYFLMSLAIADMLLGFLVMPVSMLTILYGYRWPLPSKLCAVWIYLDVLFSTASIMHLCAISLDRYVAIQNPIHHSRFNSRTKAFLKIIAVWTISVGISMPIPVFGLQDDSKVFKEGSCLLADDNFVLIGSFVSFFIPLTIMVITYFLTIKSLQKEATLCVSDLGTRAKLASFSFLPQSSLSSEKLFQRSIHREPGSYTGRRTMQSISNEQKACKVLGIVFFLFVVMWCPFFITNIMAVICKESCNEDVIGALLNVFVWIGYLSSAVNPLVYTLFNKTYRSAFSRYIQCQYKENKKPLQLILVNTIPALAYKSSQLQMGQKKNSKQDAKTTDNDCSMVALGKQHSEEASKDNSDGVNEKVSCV
Sequence of κ-opioid receptor (P41145 whole entry): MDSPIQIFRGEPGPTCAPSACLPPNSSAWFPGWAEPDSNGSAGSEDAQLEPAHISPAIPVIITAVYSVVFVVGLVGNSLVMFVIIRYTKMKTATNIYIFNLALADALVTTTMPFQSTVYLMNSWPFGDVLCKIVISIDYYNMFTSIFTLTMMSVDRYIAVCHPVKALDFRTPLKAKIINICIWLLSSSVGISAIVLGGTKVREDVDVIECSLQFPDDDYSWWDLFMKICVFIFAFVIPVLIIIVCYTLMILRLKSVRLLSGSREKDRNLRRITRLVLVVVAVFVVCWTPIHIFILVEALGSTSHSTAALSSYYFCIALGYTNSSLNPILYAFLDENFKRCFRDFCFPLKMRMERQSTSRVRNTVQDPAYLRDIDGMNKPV
Sequence of σ2 (Q5BJF2 whole entry): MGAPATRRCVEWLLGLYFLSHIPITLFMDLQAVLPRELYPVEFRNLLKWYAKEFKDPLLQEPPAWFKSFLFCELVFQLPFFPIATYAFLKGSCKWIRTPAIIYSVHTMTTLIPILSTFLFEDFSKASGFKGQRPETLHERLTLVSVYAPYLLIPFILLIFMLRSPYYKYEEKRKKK
Sequence of μ-opioid receptor (P35372 whole entry, species assumed): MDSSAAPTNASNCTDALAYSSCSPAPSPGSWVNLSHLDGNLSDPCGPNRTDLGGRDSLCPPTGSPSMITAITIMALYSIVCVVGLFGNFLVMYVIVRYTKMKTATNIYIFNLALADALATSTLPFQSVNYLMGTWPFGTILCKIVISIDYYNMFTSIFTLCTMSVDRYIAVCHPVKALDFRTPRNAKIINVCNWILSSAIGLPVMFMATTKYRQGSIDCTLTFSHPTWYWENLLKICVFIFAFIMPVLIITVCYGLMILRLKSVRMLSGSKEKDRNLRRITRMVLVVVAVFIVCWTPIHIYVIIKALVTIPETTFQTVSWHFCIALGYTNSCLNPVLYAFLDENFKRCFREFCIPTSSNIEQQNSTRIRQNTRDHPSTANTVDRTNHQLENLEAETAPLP
Sequence of M1 (P11229 whole entry): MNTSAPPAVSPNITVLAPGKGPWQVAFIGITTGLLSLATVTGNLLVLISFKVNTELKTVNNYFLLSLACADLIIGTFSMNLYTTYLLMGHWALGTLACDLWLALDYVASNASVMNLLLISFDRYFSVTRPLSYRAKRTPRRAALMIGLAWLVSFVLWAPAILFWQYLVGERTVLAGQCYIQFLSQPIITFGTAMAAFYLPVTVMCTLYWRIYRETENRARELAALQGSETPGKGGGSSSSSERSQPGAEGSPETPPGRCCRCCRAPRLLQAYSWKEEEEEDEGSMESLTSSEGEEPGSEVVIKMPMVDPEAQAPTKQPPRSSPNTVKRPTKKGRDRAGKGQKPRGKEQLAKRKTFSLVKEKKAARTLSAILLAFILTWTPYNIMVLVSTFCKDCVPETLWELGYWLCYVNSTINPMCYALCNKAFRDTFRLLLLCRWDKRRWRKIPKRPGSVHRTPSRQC
T9 sequence (P50406 whole entry, species assumed): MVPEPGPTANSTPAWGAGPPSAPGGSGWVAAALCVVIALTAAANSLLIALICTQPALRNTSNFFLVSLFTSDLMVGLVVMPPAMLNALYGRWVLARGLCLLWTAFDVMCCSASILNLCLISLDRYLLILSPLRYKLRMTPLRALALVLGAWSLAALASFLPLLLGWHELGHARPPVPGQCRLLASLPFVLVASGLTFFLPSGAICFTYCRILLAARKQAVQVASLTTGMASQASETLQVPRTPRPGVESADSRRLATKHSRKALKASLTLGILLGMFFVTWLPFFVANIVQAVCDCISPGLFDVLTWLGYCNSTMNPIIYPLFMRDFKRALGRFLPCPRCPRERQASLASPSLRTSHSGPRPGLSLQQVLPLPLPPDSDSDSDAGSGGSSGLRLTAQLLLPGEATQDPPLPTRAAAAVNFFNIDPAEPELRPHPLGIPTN
Sequence of H4 (Q9H3N8 whole entry): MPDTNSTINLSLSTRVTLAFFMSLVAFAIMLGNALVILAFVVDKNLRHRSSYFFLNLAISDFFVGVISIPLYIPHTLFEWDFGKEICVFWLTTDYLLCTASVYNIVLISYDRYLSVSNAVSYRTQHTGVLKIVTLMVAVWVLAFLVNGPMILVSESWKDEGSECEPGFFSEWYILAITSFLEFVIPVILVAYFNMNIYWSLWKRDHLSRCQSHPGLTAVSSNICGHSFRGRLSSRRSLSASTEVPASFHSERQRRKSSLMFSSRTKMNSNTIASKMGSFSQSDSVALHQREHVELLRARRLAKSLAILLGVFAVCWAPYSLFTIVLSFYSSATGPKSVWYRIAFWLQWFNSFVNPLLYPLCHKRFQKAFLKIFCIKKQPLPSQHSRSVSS
T6 sequence (P28566 whole entry, species assumed): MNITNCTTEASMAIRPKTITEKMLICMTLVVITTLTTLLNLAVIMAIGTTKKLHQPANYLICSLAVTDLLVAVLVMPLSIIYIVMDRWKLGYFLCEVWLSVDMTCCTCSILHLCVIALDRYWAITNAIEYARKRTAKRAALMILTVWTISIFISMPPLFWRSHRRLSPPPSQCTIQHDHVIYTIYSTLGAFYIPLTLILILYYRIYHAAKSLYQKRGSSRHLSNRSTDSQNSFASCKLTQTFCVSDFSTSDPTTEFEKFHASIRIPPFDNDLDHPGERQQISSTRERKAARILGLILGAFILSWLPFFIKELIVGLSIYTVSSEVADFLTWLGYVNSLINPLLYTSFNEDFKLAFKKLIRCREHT
Sequence of α2A (P08913 whole entry): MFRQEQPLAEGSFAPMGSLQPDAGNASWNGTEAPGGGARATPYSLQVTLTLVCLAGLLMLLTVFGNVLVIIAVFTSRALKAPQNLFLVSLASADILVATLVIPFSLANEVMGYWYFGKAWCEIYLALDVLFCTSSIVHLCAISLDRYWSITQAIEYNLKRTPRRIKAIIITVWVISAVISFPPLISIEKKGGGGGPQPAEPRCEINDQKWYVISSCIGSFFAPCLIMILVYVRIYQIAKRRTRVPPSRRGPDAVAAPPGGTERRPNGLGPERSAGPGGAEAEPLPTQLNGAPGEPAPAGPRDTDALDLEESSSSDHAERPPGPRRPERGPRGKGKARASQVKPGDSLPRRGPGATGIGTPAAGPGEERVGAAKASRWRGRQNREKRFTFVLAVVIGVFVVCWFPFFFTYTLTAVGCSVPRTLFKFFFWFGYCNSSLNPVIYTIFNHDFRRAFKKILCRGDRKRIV
T8 sequence (P47898 whole entry, species assumed): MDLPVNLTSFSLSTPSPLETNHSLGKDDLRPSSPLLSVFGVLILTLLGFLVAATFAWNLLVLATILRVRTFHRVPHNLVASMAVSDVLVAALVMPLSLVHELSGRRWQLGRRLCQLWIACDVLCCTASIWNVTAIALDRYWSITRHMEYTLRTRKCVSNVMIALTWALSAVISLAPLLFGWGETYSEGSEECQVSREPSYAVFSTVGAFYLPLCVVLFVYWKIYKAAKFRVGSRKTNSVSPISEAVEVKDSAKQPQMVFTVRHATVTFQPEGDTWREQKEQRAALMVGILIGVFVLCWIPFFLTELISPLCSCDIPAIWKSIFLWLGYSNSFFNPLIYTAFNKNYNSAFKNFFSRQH
Sequence of δ-opioid receptor (P41143 whole entry): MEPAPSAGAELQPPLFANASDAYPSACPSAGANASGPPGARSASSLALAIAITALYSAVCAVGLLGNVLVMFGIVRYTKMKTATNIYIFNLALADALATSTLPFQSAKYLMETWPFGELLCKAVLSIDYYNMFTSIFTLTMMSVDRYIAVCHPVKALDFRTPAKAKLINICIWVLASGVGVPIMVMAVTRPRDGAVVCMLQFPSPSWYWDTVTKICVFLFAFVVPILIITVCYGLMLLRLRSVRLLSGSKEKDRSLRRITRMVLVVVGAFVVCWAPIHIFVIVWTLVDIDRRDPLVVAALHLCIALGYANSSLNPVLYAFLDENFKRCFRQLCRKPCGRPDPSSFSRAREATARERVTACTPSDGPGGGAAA
Sequence of σ1 (Q99720 whole entry): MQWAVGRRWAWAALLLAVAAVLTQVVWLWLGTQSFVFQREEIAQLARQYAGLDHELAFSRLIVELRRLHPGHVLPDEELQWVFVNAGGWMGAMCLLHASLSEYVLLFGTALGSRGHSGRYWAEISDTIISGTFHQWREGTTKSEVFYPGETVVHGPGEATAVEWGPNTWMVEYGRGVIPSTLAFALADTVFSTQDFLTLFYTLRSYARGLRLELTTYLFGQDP
T12 sequence (P21917 whole entry): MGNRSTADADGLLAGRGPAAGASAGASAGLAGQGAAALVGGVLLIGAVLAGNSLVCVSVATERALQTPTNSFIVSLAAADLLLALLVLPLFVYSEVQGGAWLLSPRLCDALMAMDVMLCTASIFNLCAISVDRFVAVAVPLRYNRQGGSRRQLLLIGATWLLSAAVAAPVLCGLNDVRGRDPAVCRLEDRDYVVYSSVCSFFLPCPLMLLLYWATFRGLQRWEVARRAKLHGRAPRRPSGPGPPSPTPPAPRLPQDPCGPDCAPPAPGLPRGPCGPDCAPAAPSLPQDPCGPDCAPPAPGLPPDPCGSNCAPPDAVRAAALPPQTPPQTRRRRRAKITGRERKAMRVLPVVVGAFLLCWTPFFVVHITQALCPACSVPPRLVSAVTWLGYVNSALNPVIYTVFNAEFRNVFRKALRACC

COc1ccc(OCC2c3cccn3CC(=O)N2Cc2cccc(C(F)(F)F)c2)cc1 (racemic) [1180-447, 1-((4-Methoxyphenoxy)methyl)-2-(3-(trifluoromethyl)benzyl)-1,2-dihydropyrrolo[1,2-a]pyrazin-3(4H)-one]
% control response (GluA2): 99.3 ± 2.9 % control response
% control response (α1β2γδ-nACh): 78.5 ± 4.5 % control response
% control response (α1β2γ2-GABAA): 81.7 ± 7.5 % control response
remaining activity at 10 µM (5-HT1A): 101%
remaining activity at 10 µM (5-HT1B): 109%
remaining activity at 10 µM (5-HT1D): 115%
remaining activity at 10 µM (5-HT1E): 80%
remaining activity at 10 µM (5-HT2A; [4]): 49%
Ki (5-HT2A; [5]): 2 µM
remaining activity at 10 µM (5-HT5A): 92%
remaining activity at 10 µM (5-HT6): 85%
remaining activity at 10 µM (D1): 87%
remaining activity at 10 µM (D2): 101%
remaining activity at 10 µM (D4): 101%
remaining activity at 10 µM (serotonin transporter): 91%
remaining activity at 10 µM [1]: 70%
remaining activity at 10 µM (μ-opioid receptor): 99%
remaining activity at 10 µM (δ-opioid receptor): 93%
remaining activity at 10 µM (κ-opioid receptor; [4]): 47%
Ki (κ-opioid receptor; [5]): 1.58 µM
Radioligand binding in 10 μM compound (% control) (GABAA): 118 % control
remaining activity at 10 µM (H1): 86%
remaining activity at 10 µM (H3): 79%
remaining activity at 10 µM (H4): 107%
remaining activity at 10 µM (α2A): 98%
remaining activity at 10 µM (α2B): 94%
remaining activity at 10 µM (α2C): 85%
remaining activity at 10 µM (β3): 73%
remaining activity at 10 µM (M1): 88%
remaining activity at 10 µM (M3): 87%
remaining activity at 10 µM (M4): 100%
Radioligand binding in 10 μM compound (% control) [2]: 88 % control
remaining activity at 10 µM [3]: 84%
Radioligand binding in 10 μM compound (% control) (hERG): 70 % control
remaining activity at 10 µM (σ1): 76%
remaining activity at 10 µM (σ2; [4]): 32%
Ki (σ2; [5]): 1.58 µM
receptors with >50% inhibition / receptors tested (CNS receptors): 4/44
